Assay results from patent US20070060620A1, “Use of RAR retinoid agonists to increase sperm count and sperm mobility in males” (priority 2005, published 2007).

How the values were obtained:
[1] = tested on: sperm count and sperm motility; conditions: oral retinoids used for psoriasis or acne; cited from earlier work
[2] = phase 2 studies in patients with psoriasis and acne: systemic side-effect profile; type: in vivo, human; conditions: compared with acitretin/etretinate and isotretinoin
[3] = plasma levels and half-life after clinical dosing with tazarotene; type: in vivo
From the text: Thus, tazarotene and other RAR-specific retinoids are used in the method of the present invention to help with male infertility that is due to low sperm counts and/or low sperm motility. Furthermore, retinoids such as tazarotene may be used in any situation in which couples are trying to conceive, where a boost to sperm production/motility could bring about an increase in the chances that a female could become pregnant. As a practical matter, since retinoids at doses likely to be effective in these circumstances are highly teratogenic, an unintended effect might arise from the transfer of the retinoid to a female in the ejaculate of the male. […] Thus, in a period of 3 days, levels of retinoid in plasma (and also in seminal fluid) would be less than 2%, and after about one week would be less than 0.01% of the original levels. Clinical dosing with tazarotene (eg at 3-6 mg) provide levels of tazarotenic acid (the major metabolite of tazarotene) in plasma of about 75-150 ng/mL study. Thus, in 3 days, plasma levels would be expected to drop to about 2-3 ng/mL (endogenous levels of retinoid agonists such as tretinoin, isotretinoin and 4-oxo-13-cis retinoic acid may easily total over 6 ng/mL). Sperm count and motility are likely to remain elevated for some time, since sperm maturation occurs over a period of 72-74 days.

| levels of retinoid in plasma (and also in seminal fluid) relative to the original levels ([3]; after about one week of washout) | half-life ([3]; human, plasma, read-out: effective half-life in plasma) | levels of retinoid in plasma (and also in seminal fluid) relative to the original levels ([3]; in a period of 3 days of washout) | Compound | effect on sperm count and sperm motility [1] | systemic side-effect profile [2] |
| --- | --- | --- | --- | --- | --- |
| – | – | – | COc1cc(C)c(/C=C/C(C)=C/C=C/C(C)=C/C(=O)O)c(C)c1C [acitretin] | increase in sperm count and sperm motility | – |
| – | – | – | CCOC(=O)/C=C(C)/C=C/C=C(C)/C=C/c1c(C)cc(OC)c(C)c1C [etretinate] | increase in sperm count and sperm motility | – |
| less than 0.01% | 7 to 12 h | less than 2% | CCOC(=O)c1ccc(C#Cc2ccc3c(c2)C(C)(C)CCS3)nc1 [tazarotene] | – | far better than those of acitretin/etretinate and isotretinoin |
| – | – | – | CC1=C(/C=C/C(C)=C/C=C/C(C)=C\C(=O)O)C(C)(C)CCC1 [isotretinoin] | increase in sperm count and sperm motility | – |
